According to ChEMBL document CHEMBL1201862, “PubChem BioAssay data set” (2004):
Activity calls are given as the source filed them.

Legend:
[1] = target: FAD-linked sulfhydryl oxidase ALR (Homo sapiens, UniProt P55789); experiment: ALR-catalysed DTT oxidation blockers – biochemical, H2O2 detection, luminescence, cherry-pick, dose response (AID 493248)
[2] = target: T1, Corticotropin-releasing factor receptor 2/Corticotropin-releasing factor-binding protein (Homo sapiens, UniProt P24387+Q13324); experiment: activators of CRF receptor 2 with binding protein – uHTS hits, confirmation (AID 602473); type: functional; conditions: read-out: EC50_Mean
T1 sequence (Q13324 whole entry): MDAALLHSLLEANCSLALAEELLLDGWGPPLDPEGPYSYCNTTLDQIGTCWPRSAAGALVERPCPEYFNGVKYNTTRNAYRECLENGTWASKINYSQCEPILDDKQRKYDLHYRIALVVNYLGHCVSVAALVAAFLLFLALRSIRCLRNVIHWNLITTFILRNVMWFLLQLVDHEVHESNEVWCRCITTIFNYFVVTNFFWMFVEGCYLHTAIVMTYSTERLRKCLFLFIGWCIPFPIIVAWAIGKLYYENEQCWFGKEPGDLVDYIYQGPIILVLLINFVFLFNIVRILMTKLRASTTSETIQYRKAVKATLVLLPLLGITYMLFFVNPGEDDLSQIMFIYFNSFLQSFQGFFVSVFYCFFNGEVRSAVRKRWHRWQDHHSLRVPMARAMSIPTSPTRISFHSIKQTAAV
T1 sequence (P24387 whole entry): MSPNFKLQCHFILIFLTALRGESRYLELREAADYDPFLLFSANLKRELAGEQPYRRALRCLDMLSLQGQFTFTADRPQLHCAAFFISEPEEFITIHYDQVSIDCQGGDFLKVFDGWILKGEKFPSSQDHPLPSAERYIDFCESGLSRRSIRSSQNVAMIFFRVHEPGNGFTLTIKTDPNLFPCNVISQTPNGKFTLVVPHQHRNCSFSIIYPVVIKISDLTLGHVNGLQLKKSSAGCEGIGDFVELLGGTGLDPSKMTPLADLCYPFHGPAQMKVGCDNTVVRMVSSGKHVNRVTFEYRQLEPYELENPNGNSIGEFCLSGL

[3] = target: T1, Corticotropin-releasing factor receptor 2/Corticotropin-releasing factor-binding protein; experiment: Dose Response confirmation of uHTS hits for small molecule antagonists of the CRF-binding protein and CRF-R2 receptor complex.; type: functional; conditions: read-out: IC50_Mean
cells = type: functional
[4] = THP-1 cell cytotoxicity, dose response, cytotoxicity control for non-replicating M. tuberculosis project (AID 489025); type: functional
Vero = experiment: cells; type: functional; conditions: Chlorocebus sabaeus
[5] = target: T2, Heat shock factor protein 1 (Mus musculus, UniProt P38532); experiment: enhancement of HSF1-driven luciferase signal – cell-based, NIH3T3, luminescence, dose retest, confirmation (AID 435004); type: functional;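 note: stress induced by proteasome inhibitor MG132 added 30 min after compound; luciferase reporter driven by HSF1 response element in NIH3T3 cells; actives raise luminescence as potentiators of the MG132 stress response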
T2 sequence (P38532 whole entry): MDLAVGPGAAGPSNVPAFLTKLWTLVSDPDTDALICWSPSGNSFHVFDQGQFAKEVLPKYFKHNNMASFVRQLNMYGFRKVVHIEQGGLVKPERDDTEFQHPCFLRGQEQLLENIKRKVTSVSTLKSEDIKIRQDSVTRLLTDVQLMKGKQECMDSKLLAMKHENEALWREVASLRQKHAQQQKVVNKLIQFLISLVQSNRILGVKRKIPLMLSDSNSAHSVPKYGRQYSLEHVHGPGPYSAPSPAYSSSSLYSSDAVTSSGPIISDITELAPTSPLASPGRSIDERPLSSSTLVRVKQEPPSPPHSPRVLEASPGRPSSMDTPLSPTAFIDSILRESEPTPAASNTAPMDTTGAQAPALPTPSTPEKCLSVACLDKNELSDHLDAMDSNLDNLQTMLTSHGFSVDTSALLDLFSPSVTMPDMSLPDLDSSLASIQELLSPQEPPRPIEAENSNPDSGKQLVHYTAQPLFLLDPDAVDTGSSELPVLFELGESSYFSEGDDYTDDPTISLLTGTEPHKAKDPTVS

FAD-linked sulfhydryl oxidase ALR, sequence (P55789 whole entry): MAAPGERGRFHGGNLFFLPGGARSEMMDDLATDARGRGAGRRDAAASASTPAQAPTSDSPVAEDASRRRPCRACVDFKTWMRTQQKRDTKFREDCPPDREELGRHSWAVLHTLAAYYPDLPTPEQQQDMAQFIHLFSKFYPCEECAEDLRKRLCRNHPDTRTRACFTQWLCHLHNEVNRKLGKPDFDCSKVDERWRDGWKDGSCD

Nc1ccc(-c2nc3ccccc3[nH]2)cc1
AC50 [1]: 1.3 µM (active)

O=C(C[C@H]1C/C=C\C[C@@H](Cc2ccc(F)cc2)C(=O)O[C@H](c2ccccc2)CNC1=O)NCCO
EC50 [2]: > 53 µM (inactive) | IC50 [3]: > 47.1 µM (inactive)

O=C(N/N=C/c1ccncc1)c1cccc(N/N=C/c2ccncc2)c1
AC50 [1]: 6.02 µM (active)

CC(C)c1ccc(NC2CCCN(C(=O)c3cnsn3)C2)cc1 (centres undefined)
AC50 [1]: 4.8 µM (active)

CC1(C(=O)OCC(=O)Nc2nnc(-c3ccccc3)o2)CC1(Cl)Cl (centres undefined)
IC50 (cells): 24.9 µM (active) | CC50 [4]: > 40 µM (active)

Cc1cccc(N2CCN(C(=O)C3CCN(S(=O)(=O)c4c(C)noc4C)CC3)CC2C)c1 (centres undefined)
AC50 [1]: 10.6 µM (active)

COc1cc(/C=C/C(=O)N2C(=O)c3cccc(N)c3C2=O)cc(OC)c1OC
CC50 (Vero): 17.8 µM (active) | EC50 [5]: 2.98 µM (active)

Cc1cccc(N2CCN(C(=O)C3CCCN(S(=O)(=O)c4c[nH]cn4)C3)CC2C)c1 (centres undefined)
AC50 [1]: 3.55 µM (active)

COc1ccccc1-c1c(NC(=O)C(C)C)n(C)c2ccccc2c1=O
EC50 [2]: > 53 µM (inactive) | IC50 [3]: > 47.1 µM (inactive)

CCOC(=O)c1sc(NC(=O)CCN2CCC(C)CC2)c(C(=O)OCC)c1C
EC50 [5]: > 260 µM (inactive)

Cc1cccc(C(=O)Oc2ccc(/C=N/NC(=O)c3ccc(O)cc3)cc2)c1
EC50 [2]: > 53 µM (inactive) | IC50 [3]: > 47.1 µM (inactive)

CN(c1ccccc1)c1nc(N)c([N+](=O)[O-])c(N2CCCCCC2)n1
EC50 [5]: 27.7 µM (active)

CC(C)(C)c1csc(NC(=O)c2ccccc2O)n1
CC50 [4]: 38.7 µM (active)

CC1CCN(c2nc3ccc(C(=O)NCCCN4CCCCC4C)cc3s2)CC1 (centres undefined)
CC50 (Vero): > 25 µM (active)
